# Where two headings read alike, the source gives them in different places.
# How the values were obtained:
# [1] = doses approved for motor symptoms of PD; 535 PD patients; cited from earlier work
# synuclein = synuclein (Homo sapiens, UniProt P37840); details: in vitro; cited from earlier work
# [2] = for MTD-1 (Pramipexole alone): Period 1
# Description: The starting dose of pramipexole was 0.5 mg and the dose was increased daily by 0.5 mg increments.
# When a subject reached FID-1 on pramipexole alone, the subject was washed out for at least 5 days, and then entered Period 2 of the study during which the subject received single daily oral doses of pramipexole starting at 0.5 mg and titrated upward by 0.5 mg increments, together with oral aprepitant (80 mg) until subjects again reached an intolerable dose defined as above. The FID on oral pramipexole plus oral aprepitant was referred to as FID-2.
# If a subject reached FID-2 during Period 2 at the same or lower dose than FID-1, and providing the investigator judged there were no safety issues and the subject was consenting, the subject received the same dose of pramipexole as the FID-2 dose together with a higher dose of oral aprepitant (120 mg) on the next day and the protocol specified that said subject should continue with the remainder of the dose titration with the higher dose of oral aprepitant (120 mg) until they reach the intolerable dose (FID2+). All other provisions of the protocol remained unchanged. Assessments were the same as those planned for the dose escalation day.
# In addition, a laboratory panel was taken at screening and at the end of the study.
# [3] = biological target: human wild-type alpha-synuclein (Homo sapiens, UniProt P37840); details: in vitro; by H2O2 plus cytochrome c; cited from earlier work
# [4] = biological target: alpha-synuclein in human neuroblastoma SH-SY5Y cells (Homo sapiens, UniProt P37840); details: cited from earlier work
# [5] = 5 mg/day of pramipexole, cited from earlier work
# [6] = system: dopaminergic neurons in a mouse PD model; details: cited from earlier work
compound,measurement,setting,value
"CCCN[C@H]1CCc2nc(N)sc2C1 [Pramipexole, (S)-6-propylamino-4,5,6,7-tetrahydro-1,3-benzothiazole-2-amine]",Neuroprotective (disease modifying) activity,[1],"failed to evidence neuroprotective (i.e., disease modifying) activity"
same,Synuclein oligomer formation,synuclein,diminishes synuclein oligomer formation
same,MTD-1 (Pramipexole alone),[2]; Subject 1001,2.0 mg
same,MTD-1 (Pramipexole alone),"[2]; Subject 1006, NA, not tolerated at 0.5 mg",NA (not tolerated
same,MTD-1 (Pramipexole alone),[2]; Subject 1007,4.0 mg
same,MTD-1 (Pramipexole alone),[2]; Subject 1008,1.0 mg
same,Reaching of FID-1,"[2]; human, in vivo",All subjects reached FID-1
same,Dose limiting toxicity,[2]; in vivo,gastro-intestinal adverse events
same,Oligomerization of human wild-type alpha-synuclein,[3],decreases the in vitro oligomerization
same,Aggregation of alpha-synuclein,[4],inhibit the aggregation of alpha-synuclein
same,Nausea,[5],76 % of patients
same,Vomiting,[5],39 % of patients
same,Patients not able to complete the study,[5]; presumably because of intolerable GI adverse events,36 % of patients
same,Toxic effects of rotenone on dopaminergic neurons,[6]; mouse PD model,inhibits the toxic effects of rotenone
same,Immunoreactivity for alpha-synuclein,[6]; rotenone mouse PD model,reducing immunoreactivity for alpha-synuclein

# Source: patent publication US11160809B2, “NK1-antagonist combination and method for treating synucleinopathies” (priority 2017, dated 2021)
